Measured values: US20240150345A1, “GCN2 MODULATING COMPOUNDS AND USES THEREOF” (HiberCell, Inc., priority 2021, published 2024)

Target: T1, GCN2 (Homo sapiens, UniProt Q9P2K8)
T1 construct: purchased Carma Biosciences (so in the source)
Assay: TR-FRET biochemical assay for inhibition of GCN2 activity
Conditions: 2 nM GCN2, 100 nM GFP-eIF2α, 150 μM ATP, 1.5 hours at 25° C.
Protocol: Exemplary compounds from the above Examples were tested for ability to inhibit GCN2 activity using a time resolved fluorescence energy transfer (TR-FRET) assay. Assay procedures and results are described below for Examples 12-105.
GCN2 protein was obtained from Carma Biosciences (cat #05-153). The protein was diluted in assay buffer (ThermoFisher Scientific, #PV6135), 2 mM dithiothreitol (DTT), to obtain a final concentration of 2 nM and 5 μL was plated in a 384-well white assay plate. Test compounds were serially diluted to 11 concentrations by 3-fold dilution in DMS0 and 10 nL of stock was plated into 384 well white assay plate. DMS0 was used as a vehicle control. GFP-eIF2α protein was obtained from ThermoFisher (cat #PV4809). The protein was diluted in assay buffer to a 2× concentration of 200 nM along with 300 μM ATP (final concentration of 100 nM GFP-eIF2α and 150 μM ATP) in the presence of 2 mM DTT and a […] was added to each well containing the GCN2 protein and test compound. The plate was incubated in the dark at 25° C. for 1.5 hours, shaking at 1250 rpm. Tb-anti P-eIF2α (ThermoFisher cat #PV4815) was diluted to a to a concentration of 1 nM in TR-FRET Dilution Buffer (ThermoFisher cat #PV3574). 10 μL of the Tb-anti P-eIF2a solution was added to the TR-FRET reaction. The plate was incubated in the dark for 2 h at 25° C. shaking at 600 rpm. The FRET signal from the plate was read on a Envision (PerkinElmer) plate reader: • Label 1: Excitation: 340 nm, bandwidth 30 nm; Emission: 495 nm, bandwidth 10 nm. Lag time: 100 μsec. Integration time: 400 μsec. Flashes: 30. • Label 2: Excitation: 340 nm, bandwidth 30 nm; Emission: 520 nm, bandwidth 25 nm. Lag time: 100 μsec. Integration time: 400 μsec. Flashes: 30
The data were analyzed using GraphPad Prism employing a 4-parameter sigmoidal curve fit.

T1 sequence (Q9P2K8 whole entry): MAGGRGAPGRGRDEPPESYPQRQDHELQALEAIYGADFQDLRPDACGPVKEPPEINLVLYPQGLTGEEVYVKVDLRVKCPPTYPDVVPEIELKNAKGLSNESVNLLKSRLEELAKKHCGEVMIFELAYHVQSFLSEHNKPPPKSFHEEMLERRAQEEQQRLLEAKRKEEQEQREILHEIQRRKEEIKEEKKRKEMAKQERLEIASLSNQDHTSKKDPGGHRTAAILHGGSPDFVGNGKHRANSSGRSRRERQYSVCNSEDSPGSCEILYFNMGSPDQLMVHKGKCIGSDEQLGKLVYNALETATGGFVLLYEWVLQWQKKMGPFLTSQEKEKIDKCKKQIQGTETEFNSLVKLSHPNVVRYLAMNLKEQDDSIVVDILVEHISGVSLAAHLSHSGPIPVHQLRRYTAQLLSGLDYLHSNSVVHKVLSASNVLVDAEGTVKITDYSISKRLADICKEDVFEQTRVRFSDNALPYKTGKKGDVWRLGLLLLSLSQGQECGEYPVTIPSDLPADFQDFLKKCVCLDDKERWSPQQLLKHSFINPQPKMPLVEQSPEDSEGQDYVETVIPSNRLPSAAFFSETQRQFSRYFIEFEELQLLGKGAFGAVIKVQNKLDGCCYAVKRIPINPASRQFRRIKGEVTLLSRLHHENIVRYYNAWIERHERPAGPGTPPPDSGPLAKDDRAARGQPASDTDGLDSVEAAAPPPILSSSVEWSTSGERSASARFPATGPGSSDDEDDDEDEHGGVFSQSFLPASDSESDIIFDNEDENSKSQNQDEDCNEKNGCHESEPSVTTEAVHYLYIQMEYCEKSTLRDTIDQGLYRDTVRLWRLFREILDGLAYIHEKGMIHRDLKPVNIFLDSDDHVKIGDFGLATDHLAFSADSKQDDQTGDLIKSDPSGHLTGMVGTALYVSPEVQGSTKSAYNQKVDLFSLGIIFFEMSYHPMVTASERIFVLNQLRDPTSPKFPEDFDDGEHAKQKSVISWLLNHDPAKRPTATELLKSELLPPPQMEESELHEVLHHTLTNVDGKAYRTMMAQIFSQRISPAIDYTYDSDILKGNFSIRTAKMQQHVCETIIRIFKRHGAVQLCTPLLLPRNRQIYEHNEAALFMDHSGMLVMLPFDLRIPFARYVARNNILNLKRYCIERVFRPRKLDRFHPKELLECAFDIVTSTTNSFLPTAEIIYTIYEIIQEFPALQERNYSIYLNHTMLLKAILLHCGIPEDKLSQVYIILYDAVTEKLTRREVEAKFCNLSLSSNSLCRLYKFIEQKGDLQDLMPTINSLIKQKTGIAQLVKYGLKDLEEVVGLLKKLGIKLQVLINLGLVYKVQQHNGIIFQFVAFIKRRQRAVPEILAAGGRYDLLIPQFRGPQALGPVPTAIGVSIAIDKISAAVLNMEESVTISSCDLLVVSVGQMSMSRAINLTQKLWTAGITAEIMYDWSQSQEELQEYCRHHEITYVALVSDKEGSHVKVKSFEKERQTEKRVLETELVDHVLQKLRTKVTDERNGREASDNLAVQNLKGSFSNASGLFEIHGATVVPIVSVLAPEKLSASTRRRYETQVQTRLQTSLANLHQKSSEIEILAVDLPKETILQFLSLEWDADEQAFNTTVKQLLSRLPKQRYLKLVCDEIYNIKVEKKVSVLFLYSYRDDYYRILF

| SMILES | IC50 [nM] |
| --- | --- |
| Cc1ncc(F)cc1S(=O)(=O)Nc1ccc(F)c(COc2cnc3[nH]ncc3c2)c1F [Compound 30, N-(3-(((1H-pyrazolo[3,4-b]pyridin-5-yl)oxy)methyl)-2,4-difluorophenyl)-5-fluoro-2-methylpyridine-3-sulfonamide] | < 50 |
| CNc1nccn2c(CCc3c(F)ccc(NS(=O)(=O)c4cc(Cl)cnc4OC)c3F)cnc12 [Compound 31, 5-chloro-N-(2,4-difluoro-3-(2-(8-(methylamino)imidazo[1,2-a]pyrazin-3-yl)ethyl)phenyl)-2-methoxypyridine-3-sulfonamide] | < 50 |
| COc1ncc(Cl)cc1S(=O)(=O)Nc1ccc(F)c(CCc2cnc3c(N)nccn23)c1F [Compound 32, N-[3-(2-[8-aminoimidazo[1,2-a]pyrazin-3-yl]ethyl)-2,4-difluorophenyl]-5-chloro-2-methoxypyridine-3-sulfonamide] | < 50 |
| CCn1ncc2ncc(CCc3c(F)ccc(NS(=O)(=O)c4cc(Cl)cnc4OC)c3F)cc21 [Compound 33, 5-chloro-N-[3-(2-[1-ethylpyrazolo[4,3-b]pyridin-6-yl]ethyl)-2,4-difluorophenyl]-2-methoxypyridine-3-sulfonamide] | < 50 |
| CCn1ncc2ncc(CCc3c(F)ccc(NS(=O)(=O)c4cc(F)cnc4OC)c3F)cc21 [Compound 34, N-[3-(2-[1-ethylpyrazolo[4,3-b]pyridin-6-yl]ethyl)-2,4-difluorophenyl]-5-fluoro-2-methoxypyridine-3-sulfonamide] | < 50 |
| COc1ncc(Cl)cc1S(=O)(=O)Nc1ccc(F)c(CCc2cnc3cnn(C(C)C)c3c2)c1F [Compound 35, 5-chloro-N-[2,4-difluoro-3-(2-[1-isopropylpyrazolo[4,3-b]pyridin-6-yl]ethyl)phenyl]-2-methoxypyridine-3-sulfonamide] | < 50 |
| COc1ncc(F)cc1S(=O)(=O)Nc1ccc(F)c(CCc2cnc3cnn(C(C)C)c3c2)c1F [Compound 36, N-[2,4-difluoro-3-(2-[1-isopropylpyrazolo[4,3-b]pyridin-6-yl]ethyl)phenyl]-5-fluoro-2-methoxypyridine-3-sulfonamide] | 50 to 500 |
| COc1ncc(F)cc1S(=O)(=O)Nc1ccc(F)c(CCc2cnc3cn(C(C)C)nc3c2)c1F [Compound 37, N-[2,4-difluoro-3-(2-[2-isopropylpyrazolo[4,3-b]pyridin-6-yl]ethyl)phenyl]-5-fluoro-2-methoxypyridine-3-sulfonamide] | 50 to 500 |
| Cc1ncc(F)cc1S(=O)(=O)Nc1ccc(F)c(COc2cnc3[nH]nc(C)c3c2)c1F [Compound 38, N-[2,4-difluoro-3-[([3-methyl-1H-pyrazolo[3,4-b]pyridin-5-yl]oxy)methyl]phenyl]-5-fluoro-2-methylpyridine-3-sulfonamide] | < 50 |
| CCc1n[nH]c2ncc(OCc3c(F)ccc(NS(=O)(=O)c4cc(F)cnc4OC)c3F)cc12 [Compound 39, N-[3-[([3-ethyl-1H-pyrazolo[3,4-b]pyridin-5-yl]oxy)methyl]-2,4-difluorophenyl]-5-fluoro-2-methoxypyridine-3-sulfonamide] | < 50 |
| CCc1n[nH]c2ncc(OCc3c(F)ccc(NS(=O)(=O)c4cc(Cl)cnc4OC)c3F)cc12 [Compound 40, 5-chloro-N-[3-[([3-ethyl-1H-pyrazolo[3,4-b]pyridin-5-yl]oxy)methyl]-2,4-difluorophenyl]-2-methoxypyridine-3-sulfonamide] | < 50 |
| CCc1n[nH]c2ncc(OCc3c(F)ccc(NS(=O)(=O)c4cc(C#N)cnc4OC)c3F)cc12 [Compound 41, 5-cyano-N-[3-[([3-ethyl-1H-pyrazolo[3,4-b]pyridin-5-yl]oxy)methyl]-2,4-difluorophenyl]-2-methoxypyridine-3-sulfonamide] | < 50 |
| COc1ncc(Cl)cc1S(=O)(=O)Nc1ccc(F)c(COc2cnc3cnn(C)c3c2)c1F [Compound 42, 5-chloro-N-[2,4-difluoro-3-[([1-methylpyrazolo[4,3-b]pyridin-6-yl]oxy)methyl]phenyl]-2-methoxypyridine-3-sulfonamide] | < 50 |
| COc1ncc(F)cc1S(=O)(=O)Nc1ccc(F)c(COc2cnc3cnn(C)c3c2)c1F [Compound 43, N-[2,4-difluoro-3-[([1-methylpyrazolo[4,3-b]pyridin-6-yl]oxy)methyl]phenyl]-5-fluoro-2-methoxypyridine-3-sulfonamide] | < 50 |
| COc1ncc(F)cc1S(=O)(=O)Nc1ccc(F)c(COc2cnc3[nH]nc(C(F)(F)F)c3c2)c1F [Compound 44, N-[2,4-difluoro-3-([[3-(trifluoromethyl)-1H-pyrazolo[3,4-b]pyridin-5-yl]oxy]methyl)phenyl]-5-fluoro-2-methoxypyridine-3-sulfonamide] | < 50 |
| COc1ncc(F)cc1S(=O)(=O)Nc1ccc(F)c(OCc2cnc3[nH]nc(C)c3c2)c1F [Compound 45, N-[2,4-difluoro-3-([3-methyl-1H-pyrazolo[3,4-b]pyridin-5-yl]methoxy)phenyl]-5-fluoro-2-methoxypyridine-3-sulfonamide] | < 50 |
| COc1ncc(Cl)cc1S(=O)(=O)Nc1ccc(F)c(OCc2cnc3[nH]nc(C)c3c2)c1F [Compound 46, 5-chloro-N-[2,4-difluoro-3-([3-methyl-1H-pyrazolo[3,4-b]pyridin-5-yl]methoxy)phenyl]-2-methoxypyridine-3-sulfonamide] | < 50 |
| CCc1n[nH]c2ncc(OCc3c(F)ccc(NS(=O)(=O)c4cc(F)cnc4C)c3F)cc12 [Compound 47, N-[3-[([3-ethyl-1H-pyrazolo[3,4-b]pyridin-5-yl]oxy)methyl]-2,4-difluorophenyl]-5-fluoro-2-methylpyridine-3-sulfonamide] | < 50 |
| COc1ncc(C#N)cc1S(=O)(=O)Nc1ccc(F)c(OCc2cnc3[nH]nc(C)c3c2)c1F [Compound 48, 5-cyano-N-(2,4-difluoro-3-((3-methyl-1H-pyrazolo[3,4-b]pyridin-5-yl)methoxy)phenyl)-2-methoxypyridine-3-sulfonamide] | 50 to 500 |
| COc1ncc(C#N)cc1S(=O)(=O)Nc1ccc(F)c(NCc2cnc3[nH]nc(C)c3c2)c1F [Compound 49, 5-cyano-N-[2,4-difluoro-3-[([3-methyl-1H-pyrazolo[3,4-b]pyridin-5-yl]methyl)amino]phenyl]-2-methoxypyridine-3-sulfonamide] | 50 to 500 |
| COc1ncc(C#N)cc1S(=O)(=O)Nc1ccc(F)c(COc2cnc3[nH]nc(C)c3c2)c1F [Compound 50, 5-cyano-N-[2,4-difluoro-3-[([3-methyl-1H-pyrazolo[3,4-b]pyridin-5-yl]oxy)methyl]phenyl]-2-methoxypyridine-3-sulfonamide] | < 50 |
| Cc1ncc(F)cc1S(=O)(=O)Nc1ccc(F)c(OCc2cnc3[nH]nc(C)c3c2)c1F [Compound 51, N-[2,4-difluoro-3-([3-methyl-1H-pyrazolo[3,4-b]pyridin-5-yl]methoxy)phenyl]-5-fluoro-2-methylpyridine-3-sulfonamide] | 50 to 500 |
| COc1ncc(F)cc1S(=O)(=O)Nc1ccc(F)c(COc2cnc3[nH]nc(C(C)C)c3c2)c1F [Compound 52, N-[2,4-difluoro-3-[([3-isopropyl-1H-pyrazolo[3,4-b]pyridin-5-yl]oxy)methyl]phenyl]-5-fluoro-2-methoxypyridine-3-sulfonamide] | < 50 |
